Data reported in patent US20250122218A1, “MODULATORS OF CYSTIC FIBROSIS TRANSMEMBRANE CONDUCTANCE REGULATOR” (Vertex Pharmaceuticals Incorporated, priority 2022, published 2025).

Biological target: T1, CFTR in F508del/MF-HBE cells (Homo sapiens, UniProt P13569, DEL508-508)
T1 construct: human bronchial epithelial (HBE) cells derived from CF subjects heterozygous for F508del and a minimal function CFTR mutation; endogenous in cells; host or cells: primary human bronchial epithelial cells from CF subjects (F508del/MF-HBE)
T1 sequence (P13569 with tags, fused parts or gaps DEL508-508): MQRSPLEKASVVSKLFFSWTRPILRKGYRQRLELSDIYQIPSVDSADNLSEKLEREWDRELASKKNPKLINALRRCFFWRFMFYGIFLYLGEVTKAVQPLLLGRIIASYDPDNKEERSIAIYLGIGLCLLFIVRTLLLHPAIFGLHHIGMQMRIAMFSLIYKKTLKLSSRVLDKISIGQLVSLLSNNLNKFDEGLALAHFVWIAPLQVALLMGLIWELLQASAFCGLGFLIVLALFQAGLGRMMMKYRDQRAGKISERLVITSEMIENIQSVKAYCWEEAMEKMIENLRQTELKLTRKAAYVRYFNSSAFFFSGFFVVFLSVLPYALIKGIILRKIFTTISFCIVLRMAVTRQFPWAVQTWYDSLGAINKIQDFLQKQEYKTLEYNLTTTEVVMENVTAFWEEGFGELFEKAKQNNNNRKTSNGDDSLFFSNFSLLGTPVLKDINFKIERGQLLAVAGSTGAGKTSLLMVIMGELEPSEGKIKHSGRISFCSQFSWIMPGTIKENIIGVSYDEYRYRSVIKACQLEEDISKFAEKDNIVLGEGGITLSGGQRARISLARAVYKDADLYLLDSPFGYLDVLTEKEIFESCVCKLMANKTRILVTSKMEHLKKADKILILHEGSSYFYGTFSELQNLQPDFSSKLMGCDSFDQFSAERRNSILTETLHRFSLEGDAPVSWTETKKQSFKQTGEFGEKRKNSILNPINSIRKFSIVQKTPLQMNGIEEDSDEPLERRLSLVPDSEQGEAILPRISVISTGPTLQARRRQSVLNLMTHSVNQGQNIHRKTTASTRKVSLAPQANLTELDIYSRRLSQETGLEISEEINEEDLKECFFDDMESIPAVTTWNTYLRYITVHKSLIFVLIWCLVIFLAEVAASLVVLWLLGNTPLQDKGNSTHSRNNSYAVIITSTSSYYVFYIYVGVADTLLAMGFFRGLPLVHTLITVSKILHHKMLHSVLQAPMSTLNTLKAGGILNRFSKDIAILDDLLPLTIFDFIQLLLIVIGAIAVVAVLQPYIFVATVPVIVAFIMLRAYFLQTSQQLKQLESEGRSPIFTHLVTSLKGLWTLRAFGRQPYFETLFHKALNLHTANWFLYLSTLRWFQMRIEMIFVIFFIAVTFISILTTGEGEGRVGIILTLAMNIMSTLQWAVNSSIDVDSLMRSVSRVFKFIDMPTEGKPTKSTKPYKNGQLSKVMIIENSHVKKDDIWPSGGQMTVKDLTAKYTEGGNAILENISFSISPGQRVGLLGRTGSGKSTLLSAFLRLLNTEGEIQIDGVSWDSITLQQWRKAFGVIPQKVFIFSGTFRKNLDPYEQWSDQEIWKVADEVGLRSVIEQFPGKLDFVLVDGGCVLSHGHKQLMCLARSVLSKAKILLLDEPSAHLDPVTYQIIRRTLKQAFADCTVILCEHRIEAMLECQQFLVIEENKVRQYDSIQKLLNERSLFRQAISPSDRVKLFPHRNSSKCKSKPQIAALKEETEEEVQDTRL
Experiment: Ussing chamber assay of CFTR-mediated short-circuit currents (identification of potentiator compounds)
Assay type: cell-based
Conditions: potentiator incubated 18-24 hours at 37° C. in combination with 10 μM corrector, in the presence of 20% human serum, CFTR-mediated ISC
Description: Ussing chamber experiments were performed using human bronchial epithelial (HBE) cells derived from CF subjects heterozygous for F508del and a minimal function CFTR mutation (F508del/MF-HBE) and cultured as previously described (Neuberger T, Burton B, Clark H, Van Goor F; Methods Mol. Biol. 2011:741:39-54). After four days the apical media was removed, and the cells were grown at an air liquid interface for >14 days prior to use.
To isolate the CFTR-mediated short-circuit (ISC) current, F508del/MF-HBE grown on Costar® Snapwell™ cell culture inserts were mounted in an Ussing chamber and the transepithelial ISC was measured under voltage-clamp recording conditions (Vhold=0 mV) at 37° C. The basolateral solution contained (in mM) 145 NaCl, 0.83 K2HPO4, 3.3 KH2PO4, 1.2 MgCl2, 1.2 CaCl2), 10 Glucose, 10 HEPES (pH adjusted to 7.4 with NaOH) and the apical solution contained (in mM) 145 NaGluconate, 1.2 MgCl2, 1.2 CaCl2), 10 glucose, 10 HEPES (pH adjusted to 7.4 with NaOH) and 30 μM amiloride to block the epithelial sodium channel. Forskolin (20 μM) was added to the apical surface to activate CFTR, followed by apical addition of a CFTR inhibitor cocktail consisting of BPO, GlyH-101 and CFTR inhibitor 172 (each at 20 μM final assay concentration) to specifically isolate CFTR currents. The CFTR-mediated ISC (μA/cm^2) for each condition was determined from the peak forskolin response to the steady-state current following inhibition.
The activity of the CFTR potentiator compounds on the CFTR-mediated ISC was determined in Ussing chamber studies as described above. The F508del/MF-HBE cell cultures were incubated with the potentiator compounds at a range of concentrations in combination with 10 μM (14S)-8-[3-(2-{dispiro[2.0.2.1]heptan-7-yl}ethoxy)-1H-pyrazol-1-yl]-12,12-dimethyl-2λ^6-thia-3,9,11,18,23-pentaazatetracyclo[17.3.1.111,14.05,10]tetracosa-1(22),5,7,9,19(23),20-hexaene-2,2,4-trione for 18-24 hours at 37° C. and in the presence of 20% human serum. The concentration of potentiator compounds and (14S)-8-[3-(2-{dispiro[2.0.2.1]heptan-7-yl}ethoxy)-1H-pyrazol-1-yl]-12,12-dimethyl-2λ^6-thia-3,9,11,18,23-pentaazatetracyclo[17.3.1.111,14.05,10]tetracosa-1(22),5,7,9,19(23),20-hexaene-2,2,4-trione used during the 18-24 hours incubations was kept constant throughout the Ussing chamber measurement of the CFTR-mediated ISC to ensure compounds were present throughout the entire experiment. The efficacy and potency of the putative F508del potentiators was compared to that of the known potentiator, ivacaftor (N-[2,4-bis(1,1-dimethylethyl)-5-hydroxyphenyl]-1,4-dihydro-4-oxoquinoline-3-carboxamide).

EC50 [µM] | Structure (SMILES)
< 0.5 | CC(=O)N1CCCCCC(O)(C(F)(F)F)C2=NN=C(O2)c2nc(c(C(F)(F)F)cc2N)C1 (single isomer, unassigned) [Compound 20, 1-[17-amino-6-hydroxy-6,15-bis(trifluoromethyl)-19-oxa-3,4,12,18-tetrazatricyclo[12.3.1.12,5]nonadeca-1(18),2,4,14,16-pentaen-12-yl]ethanone]
> 1 | CC(=O)N1CCCCCC(O)(C(F)(F)F)C2=NN=C(O2)c2nc(c(C(F)(F)F)cc2N)C1 (single isomer, unassigned) [Compound 21, 1-[17-amino-6-hydroxy-6,15-bis(trifluoromethyl)-19-oxa-3,4,12,18-tetrazatricyclo[12.3.1.12,5]nonadeca-1(18),2,4,14,16-pentaen-12-yl]ethanone]
< 0.5 | Nc1cc(C(F)(F)F)c2nc1-c1nnc(o1)C(O)(C(F)(F)F)CCCCCN(C(=O)C1CCC1)C2 (single isomer, unassigned) [Compound 22, [17-amino-6-hydroxy-6,15-bis(trifluoromethyl)-19-oxa-3,4,12,18-tetrazatricyclo[12.3.1.12,5]nonadeca-1(18),2,4,14,16-pentaen-12-yl]-cyclobutyl-methanone]
> 1 | Nc1cc(C(F)(F)F)c2nc1-c1nnc(o1)C(O)(C(F)(F)F)CCCCCN(C(=O)C1CCC1)C2 (single isomer, unassigned) [Compound 23, [17-amino-6-hydroxy-6,15-bis(trifluoromethyl)-19-oxa-3,4,12,18-tetrazatricyclo[12.3.1.12,5]nonadeca-1(18),2,4,14,16-pentaen-12-yl]-cyclobutyl-methanone]
< 0.5 | CC(C)(C)ON=C1CCCCCC[C@](O)(C(F)(F)F)C2=NN=C(O2)c2nc1c(C(F)(F)F)cc2N (single isomer, unassigned) [Compound 29]
< 0.5 | CC(C)(C)ON=C1CCCCCC[C@](O)(C(F)(F)F)C2=NN=C(O2)c2nc1c(C(F)(F)F)cc2N (single isomer, unassigned) [Compound 30]
< 0.5 | Nc1cc(C(F)(F)F)c2nc1-c1nnc(o1)C(O)(C(F)(F)F)CCCCCCC1=NN=C2O1 (single isomer, unassigned) [Compound 32, 20-amino-6,18-bis(trifluoromethyl)-22,23-dioxa-3,4,14,15,21-pentaazatetracyclo[15.3.1.12,5.113,16]tricosa-1(21),2,4,13,15,17,19-heptaen-6-ol]

Continued, compound first:

Structure (SMILES) | EC50 [µM]
Nc1cc(C(F)(F)F)c2nc1-c1nnc(o1)C(O)(C(F)(F)F)CCCCCCC2(O)C(F)(F)F (single isomer, unassigned) [Compound 25, 17-amino-6,13,15-tris(trifluoromethyl)-19-oxa-3,4,18-triazatricyclo[12.3.1.12,5]nonadeca-1(18),2,4,14,16-pentaene-6,13-diol] | > 1
Nc1cc(C(F)(F)F)c2nc1-c1nnc(o1)C(O)(C(F)(F)F)CCCCCCC2(O)C(F)(F)F (single isomer, unassigned) [Compound 26, 17-amino-6,13,15-tris(trifluoromethyl)-19-oxa-3,4,18-triazatricyclo[12.3.1.12,5]nonadeca-1(18),2,4,14,16-pentaene-6,13-diol] | < 0.5
Nc1cc(C(F)(F)F)c2nc1-c1nnc(o1)C(O)(C(F)(F)F)CCCCCCC2(O)C(F)(F)F (single isomer, unassigned) [Compound 27, 17-amino-6,13,15-tris(trifluoromethyl)-19-oxa-3,4,18-triazatricyclo[12.3.1.12,5]nonadeca-1(18),2,4,14,16-pentaene-6,13-diol] | < 0.5
Nc1cc(C(F)(F)F)c2nc1-c1nnc(o1)C(O)(C(F)(F)F)CCCCCCC2(O)C(F)(F)F (single isomer, unassigned) [Compound 28, 17-amino-6,13,15-tris(trifluoromethyl)-19-oxa-3,4,18-triazatricyclo[12.3.1.12,5]nonadeca-1(18),2,4,14,16-pentaene-6,13-diol] | > 1
Nc1cc(C(F)(F)F)c2nc1-c1nnc(o1)[C@@](O)(C(F)(F)F)CCCCCCC2=NO (single isomer, unassigned) [Compound 31] | < 0.5
